This test deals with T1, human mGlu 5a receptor (Homo sapiens, UniProt P41594).
T1 construct: expressed in transfected cells; host or cells: EBNA cells (transient transfection); cell membrane homogenates
Kind of test: [3H]MPEP competition binding on membranes of EBNA cells transiently transfected with human mGlu 5a receptor. As to conditions: competition with 2 nM [3H]MPEP, 1 h at 4° C., Ki=IC50/[1+L/Kd]. The procedure:
For binding experiments, cDNA encoding human mGlu 5a receptor was transiently trans-fected into EBNA cells using a procedure described by Schlaeger and Christensen [Cyto-technology 15:1-13 (1998)]. Cell membrane homogenates were stored at −80° C. until the day of assay where upon they were thawed and resuspended and polytronized in 15 mM Tris-HCl, 120 mM NaCl, 100 mM KCl, 25 mM CaCl2, 25 mM MgCl2 binding buffer at pH 7.4 to a final assay concentration of 20 μg protein/well.
Saturation isotherms were determined by addition of twelve [^3H]MPEP concentrations (0.04-100 nM) to these membranes (in a total volume of 200 μl) for 1 h at 4° C. Competition experiments were performed with a fixed concentration of [^3H]MPEP (2 nM) and IC50 values of test compounds evaluated using 11 concentrations (0.3-10,000 nM). Incubations were performed for 1 h at 4° C.
At the end of the incubation, membranes were filtered onto unifilter (96-well white microplate with bonded GF/C filter preincubated 1 h in 0.1% PEI in wash buffer, Packard BioScience, Meriden, Conn.) with a Filtermate 96 harvester (Packard BioScience) and washed 3 times with cold 50 mM Tris-HCl, pH 7.4 buffer. Nonspecific binding was measured in the presence of 10 μM MPEP. The radioactivity on the filter was counted (3 min) on a Packard Top-count microplate scintillation counter with quenching correction after addition of 45 μl of microscint 40 (Can berra Packard S. A., Zürich, Switzerland) and shaking for 20 min. For functional assays, [Ca^2+]i measurements were performed as described previously by Porter et al. [Br. J. Pharmacol. 128:13-20 (1999)] on recombinant human mGlu 5a receptors in HEK-293 cells. The cells were dye loaded using Fluo 4-AM (obtainable by FLUKA, 0.2 μM final concentration). [Ca^2+]i measurements were performed using a fluorometric imaging plate reader (FLIPR, Molecular Devices Corporation, La Jolla, Calif., USA). Antagonist evaluation was performed following a 5 min preincubation with the test compounds followed by the addition of a submaximal addition of agonist.
The inhibition (antagonists) curves were fitted with a four parameter logistic equation giving IC50, and Hill coefficient using an iterative non linear curve fitting software (Xcel fit). For binding experiments the Ki values of the compounds tested are given. The Ki value is defined by the following formula: Ki=IC50/[1+L/Kd] in which the IC50 values are those concentrations of the compounds tested which cause 50% inhibition of the competing radioligand ([^3H]MPEP). L is the concentration of radioligand used in the binding experiment and the Kd value of the radioligand is empirically determined for each batch of membranes prepared.

Our source for the Ki values is patent US7964620B2, “Imidazole derivatives” (Hoffmann-La Roche Inc., priority 2003, dated 2011).

The structures appear in SMILES notation.

T1 sequence (P41594 21-1180 isoform P41594-2 limits assumed): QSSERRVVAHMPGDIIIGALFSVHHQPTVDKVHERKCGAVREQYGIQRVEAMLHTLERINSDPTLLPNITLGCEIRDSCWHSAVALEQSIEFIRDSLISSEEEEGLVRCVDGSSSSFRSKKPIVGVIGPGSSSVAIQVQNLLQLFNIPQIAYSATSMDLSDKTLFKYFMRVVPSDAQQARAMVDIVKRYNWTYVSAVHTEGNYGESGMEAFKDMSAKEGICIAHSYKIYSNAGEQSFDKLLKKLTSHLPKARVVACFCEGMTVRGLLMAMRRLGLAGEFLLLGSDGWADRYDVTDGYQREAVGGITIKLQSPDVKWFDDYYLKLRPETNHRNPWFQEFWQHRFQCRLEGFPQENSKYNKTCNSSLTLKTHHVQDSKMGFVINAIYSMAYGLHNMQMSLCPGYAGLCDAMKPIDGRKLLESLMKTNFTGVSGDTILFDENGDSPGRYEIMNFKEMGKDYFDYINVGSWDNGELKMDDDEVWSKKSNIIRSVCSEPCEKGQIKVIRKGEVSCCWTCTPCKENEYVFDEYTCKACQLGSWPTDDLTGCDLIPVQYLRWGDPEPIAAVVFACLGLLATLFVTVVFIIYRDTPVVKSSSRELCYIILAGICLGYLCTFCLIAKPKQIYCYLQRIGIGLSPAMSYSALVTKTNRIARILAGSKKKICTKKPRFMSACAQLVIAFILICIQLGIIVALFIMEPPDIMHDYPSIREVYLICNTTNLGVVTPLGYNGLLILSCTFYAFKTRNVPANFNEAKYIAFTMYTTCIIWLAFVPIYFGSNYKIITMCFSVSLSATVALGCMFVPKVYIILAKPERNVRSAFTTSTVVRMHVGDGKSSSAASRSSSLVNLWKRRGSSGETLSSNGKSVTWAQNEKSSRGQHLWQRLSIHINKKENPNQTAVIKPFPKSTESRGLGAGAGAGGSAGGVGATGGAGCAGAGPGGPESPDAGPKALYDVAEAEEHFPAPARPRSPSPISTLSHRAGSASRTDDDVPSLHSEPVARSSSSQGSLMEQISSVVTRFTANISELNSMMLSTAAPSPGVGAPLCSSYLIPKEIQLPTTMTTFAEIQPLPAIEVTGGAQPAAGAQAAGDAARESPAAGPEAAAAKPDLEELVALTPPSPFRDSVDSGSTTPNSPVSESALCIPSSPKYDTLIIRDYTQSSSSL

Turning to `Cc1nc(C#Cc2cccc(C#N)c2)cn1Cc1cncc(Cl)c1` [Example 18, 3-[1-(5-Chloro-pyridin-3-ylmethyl)-2-methyl-1H-imidazol-4-ylethynyl]-benzonitrile], the Ki was 94 nM. For `Cc1nc(C#Cc2cccc(Cl)c2)cn1Cc1ccccn1` [Example 3, 2-[4-(3-Chloro-phenylethynyl)-2-methyl-imidazol-1-ylmethyl]-pyridine], the Ki was 40 nM. Regarding `Cc1cc(C#Cc2cn(C(C)c3ccccc3)c(C)n2)ccn1` (racemic) [Example 23, rac-2-Methyl-4-[2-methyl-1-(1-phenyl-ethyl)-1H-imidazol-4-ylethynyl]-pyridine], the Ki was 77 nM. The same measure for `Cc1cc(C#Cc2cn(Cc3cccc(C)n3)c(C)n2)ccn1` [Example 4, 4-[1-(6-Methyl-pyridin-2-ylmethyl)-2-methyl-1H-imidazol-4-ylethynyl]-2-methyl-pyridine]: 93 nM. Regarding `Cc1cc(C#Cc2cn(CCc3ccccc3)c(C)n2)ccn1` [Example 29, 2-Methyl-4-(2-methyl-1-phenethyl-1H-imidazol-4-ylethynyl)-pyridine], the Ki is 33 nM.
